Assays:
[1] = tested on: human patients with atrial fibrillation; experiment: Phase II clinical study: conversion of recent onset atrial fibrillation to normal sinus rhythm (NSR) by intravenous tedisamil; format: in vivo; details: ITT sample, DC cardioversion excluded
Experimental: (§1) This first clinical study in humans was a Multi-Center, Double-Blind, Randomized, Placebo-Controlled, Sequential Ascending Dose Groups Study to evaluate the Efficacy and Safety of Intravenous Tedisamil in the Rapid Conversion to Normal Sinus Rhythm in Patients with Atrial Fibrillation or Flutter. The active ingredient used was tedisamil dihydrochloride. The study was designed as a phase II study and executed in 35 to 40 centers in 3 to 4 countries. Study duration: Screening: up to 48 hours; treatment (in-patient): single 30-minute infusion; safety follow up: 24 hours (in-patient) with continuous telemetry and 28 day safety follow up.
(§2) Secondary efficacy objectives were to determine the percentage of human patients remaining in sinus rhythm at 2.5 hours after initiation of the intravenous infusion of tedisamil versus placebo; to determine the percentage of human patients remaining in sinus rhythm at 24 hours after initiation of the intravenous infusion of tedisamil versus placebo; to determine the time to conversion after the start of the infusion of tedisamil versus placebo; and to determine the dose- and plasma concentration-response relationships of tedisamil versus placebo. Safety objective: determining the safety and tolerability of tedisamil versus placebo.
(§3) The following methodology for the study in humans was applied: A multi-center, double-blind, randomized, placebo-controlled, sequential ascending dose groups study to evaluate the efficacy and safety of intravenous tedisamil versus placebo. The study drug was infused over 30 minutes, receiving half the dose within 10 minutes and half the dose within the remaining 20 minutes The first patient group received 0.4 mg/kg of body weight, infused as 0.2 mg/kg of body weight within 10 minutes, continued with 0.2 mg/kg of body weight infused within 20 minutes. The next higher dose 0.6 mg/kg of body weight (0.3 mg/kg of body weight infused over 10 min, continued with 0.3 mg/kg of body weight infused over 20 minutes) was only administered after the initial dose has been assessed (blinded) and found to be safe. A third stage may be added with a higher dose. Tedisamil blood concentrations were assessed during the infusion (at 10 and 30 minutes), at conversion to normal sinus rhythm, at recurrence and 24 hours after start of infusion.
(§4) The criteria for patient inclusion in the study was atrial fibrillation or flutter with a duration of more than 3 hours and less than 48 hours, occurring as a first or recurrent episode.
(§5) • Tedisamil (0.4 mg/kg body weight) • Tedisamil (0.6 mg/kg body weight) Both dosages were given as an intravenous regimen. Reference Therapy, Dose and Mode of Administration:
(§6) The total infusion time is 30 minutes, with half the dose infused within 10 minutes, and half the dose infused within the remaining 20 minutes.
(§7) Primary efficacy: the percentage of human patients converted to normal sinus rhythm (for at least 60 seconds) at any time within 2.5 hours after the initiation of the infusion of study drug.
(§8) All efficacy variables were evaluated separately for human patients with atrial fibrillation and human patients with atrial flutter. Percentages of conversion were compared among treatment groups using a logistic regression model with factors for treatment group and center. Times to conversion were compared among treatment groups using a Cox proportional hazards model with factors for treatment group and center. Dose-response and concentration-response relationships were examined using descriptive statistics.

[2] = tested on: human patients; experiment: Clinical safety and tolerability of intravenous tedisamil (TdP, safety issues); format: in vivo
Experimental: as §2
Physical examination, ECG, 24-hour Holter monitoring, vital signs, laboratory evaluations and adverse events.

[3] = tested on: human patients with atrial flutter; experiment: Phase II clinical study: conversion of atrial flutter to normal sinus rhythm (NSR) by intravenous tedisamil; format: in vivo; details: ITT sample, DC cardioversion excluded
Experimental: as §1, §2, §3, §4
• Tedisamil (0.4 mg/kg body weight) • Tedisamil (0.6 mg/kg body weight) Both dosages were given as an intravenous regimen. Reference Therapy, Dose and Mode of Administration: […]
All efficacy variables were evaluated separately for human patients with atrial fibrillation and human patients with atrial flutter. […]

[4] = tested on: Patients with Atrial Fibrillation or Flutter; experiment: Phase II clinical study: conversion to NSR, overall (atrial fibrillation or flutter); format: in vivo, human; details: for Conversion to NSR at any time within 2.5 hrs after start of infusion: Overall (fibrillation + flutter), ITT sample, DC cardioversion excluded
Experimental: as §1, §2, §3, §4, §5, §6, §7, §8

[5] = tested on: Subjects with Recent Onset Atrial Fibrillation or Flutter; experiment: Phase III clinical study: rapid conversion to NSR by intravenous tedisamil sesquifumarate; format: in vivo, human; details: active ingredient tedisamil sesquifumarate
Experimental: This second clinical study in humans was a Multi-Center, Double-Blind, Randomized, Placebo-Controlled, Parallel Design Study to evaluate the Efficacy and Safety of Intravenous Tedisamil Sesquifumarate in the Rapid Conversion to Normal Sinus Rhythm in Subjects with Recent Onset Atrial Fibrillation or Flutter.
The active ingredient used was tedisamil sesqifumarate. […] Study duration: Screening: up to 48 hours; treatment (in-patient): single 30-minute infusion; safety follow up: 24 hours (in-patient) with continuous telemetry and 28 day safety follow up. […]

[6] = female, 0.4 mg/kg i.v. 30-min infusion
[7] = female, 0.6 mg/kg i.v. 30-min infusion
[8] = male, 0.4 mg/kg i.v. 30-min infusion
[9] = male, 0.6 mg/kg i.v. 30-min infusion

C1CCC2(C1)C1CN(CC3CC3)CC2CN(CC2CC2)C1 [Tedisamil, N,N′-dicyclopropyl-methyl-9,9-tetramethylen-3,7-diazabicyclo[3,3,1]nonane]
Conversion to NSR at any time within 2.5 hrs after start of infusion [1, 6]: 6/17 (35.3%)
Conversion to NSR at any time within 2.5 hrs after start of infusion [1, 7]: 6/16 (37.5%)
Conversion to NSR at any time within 2.5 hrs after start of infusion ([1]; female, age <65 yrs, 0.4 mg/kg i.v.): 2/5 (40.0%)
Conversion to NSR at any time within 2.5 hrs after start of infusion ([1]; female, age <65 yrs, 0.6 mg/kg i.v.): 1/3 (33.3%)
Conversion to NSR at any time within 2.5 hrs after start of infusion ([1]; female, age >=65 yrs, 0.4 mg/kg i.v.): 4/12 (33.3%)
Conversion to NSR at any time within 2.5 hrs after start of infusion ([1]; female, age >=65 yrs, 0.6 mg/kg i.v.): 5/13 (38.5%)
Conversion to NSR at any time within 2.5 hrs after start of infusion [1, 8]: 18/35 (51.4%)
Conversion to NSR at any time within 2.5 hrs after start of infusion [1, 9]: 18/26 (69.2%)
Conversion to NSR at any time within 2.5 hrs after start of infusion ([1]; male, age <65 yrs, 0.4 mg/kg i.v.): 10/20 (50.0%)
Conversion to NSR at any time within 2.5 hrs after start of infusion ([1]; male, age <65 yrs, 0.6 mg/kg i.v.): 13/18 (72.2%)
Conversion to NSR at any time within 2.5 hrs after start of infusion ([1]; male, age >=65 yrs, 0.4 mg/kg i.v.): 8/15 (51.4%)
Conversion to NSR at any time within 2.5 hrs after start of infusion ([1]; male, age >=65 yrs, 0.6 mg/kg i.v.): 5/8 (62.5%)
Observed TdP (Torsade de Point), distribution by gender ([2]; 30 min infusion regimen): Almost all observed TdP (Torsade de Point) in 30 min regimen were in female human patients
Safety issues, male vs female patients ([2]; First (Phase II) study): fewer safety issues than female human patients
TdP in male human patients ([2]; high dosage on 0.72 in 3114 study): Only one human patient showed TdP
Conversion to NSR at any time within 2.5 hrs after start of infusion (patients converted/total) ([3]; female, 0.4 mg/kg i.v. 30-min infusion, percentage not given): 0/2
Conversion to NSR at any time within 2.5 hrs after start of infusion [3, 7]: 2/6 (33.3%)
Conversion to NSR at any time within 2.5 hrs after start of infusion [3, 8]: 1/7 (14.3%)
Conversion to NSR at any time within 2.5 hrs after start of infusion [3, 9]: 1/5 (20.0%)
Effect of extension of infusion on conversion rates ([4]; Extension of infusion beyond the times indicated (30 minutes)): did not produce higher conversion rates
Gender difference related to efficacy (conversion rate, male vs female patients) ([4]; First (Phase II) study, active ingredient tedisamil dihydrochloride): higher conversion rate compared to women
Conversion to NSR at any time within 2.5 hrs after start of infusion [4, 6]: 6/19 (31.6%)
Conversion to NSR at any time within 2.5 hrs after start of infusion [4, 7]: 8/22 (36.4%)
Conversion to NSR at any time within 2.5 hrs after start of infusion [4, 8]: 19/42 (45.2%)
Conversion to NSR at any time within 2.5 hrs after start of infusion [4, 9]: 19/31 (61.3%)
Gender difference related to efficacy (conversion rate, male vs female patients) [5]: higher conversion rate compared to women

From patent publication US20050054667A1, “Method of treating or inhibiting anti-arrhythmic events in male human patients” (Solvay Pharmaceuticals GmbH, priority 2003, published 2005)
